Converted amounts (≈) assume the structure as drawn. “Also recorded” adds a separate entry of the source. Where a name gives a salt, the structure may show the parent alone. Read-outs that look alike come from different tables or passages of the source. Values belong to the compound of their own block, whether it stands above or below them.
Experiments:
Assay type in all cases: physicochemical
[1] = Static storage at 40° C./75% RH, XRPD and HPLC post storage; conditions: 7 days
[2] = Drying / standing under ambient conditions, XRPD; conditions: for XRPD (Dry): after drying under ambient conditions overnight
Experimental: Structure (I) (Sample 28-2, 30 mg, Poorly Crystalline Pattern 3) was wetted with solvent (300 μL, 10 vol) according to Table 30 and put into a shaker at 50° C. for 6 days. The suspensions were isolated using filter cartridges and positive pressure. A XRPD pattern was collected for each sample. […] This characterization is presented and discussed in Examples detailed herein. (see, e.g., FIG. 75)

[3] = Variable temperature XRPD (VT-XRPD); conditions: 250° C.
Description: (§1) XRPD diffractograms were collected on a PANalytical Empyrean diffractometer using Cu Kα radiation (45 kV, 40 mA, λ=1.544398 Å) in reflection geometry. The instrument was fitted with an Anton Paar CHC plus+ stage fitted with graphite/Kapton windows and equipped with air cooling coupled or a low vacuum pump system using an Edwards RV3 pump. A programmable divergence slit (in automatic mode), with a 10 mm fixed incident beam mask, Ni filter and 0.04 rad Soller slits were used on the incident beam. A PIXcel3D detector, placed on the diffracted beam, was fitted with a programmable anti-scatter slit (in automatic mode) and 0.04 rad Soller slits.
For variable temperature (VT-XRPD) experiments the samples were prepared and analyzed in an Anton Paar chromed sample holder. The sample chamber was under ambient atmosphere and a heating/cooling rate of 10° C./min was used with a 2 min isothermal hold before the measurement started. The measurement parameters are as per the standard screening data collection method (detailed above). Measurements were taken at the following temperatures: 25, 80, 170, 250, and 25° C.

[4] = XRPD under vacuum; conditions: vacuum released for 30 min, ambient conditions
Description: as §1
For XRPD under vacuum the samples were prepared and analyzed in an Anton Paar chromed sample holder. The sample temperature was kept constant throughout at 25° C. The measurement parameters are as per the standard screening data collection method (detailed above). An initial measurement was taken before the vacuum was initiated and then subsequently at 10 min intervals. Data collection was stopped after three consecutive scans showing no change.

[5] = Gravimetric vapor sorption (GVS) and XRPD post-GVS
Experimental: Sorption isotherms were obtained using a SMS DVS Intrinsic moisture sorption analyzer, controlled by DVS Intrinsic Control software. The sample temperature was maintained at 25° C. by the instrument controls. The humidity was controlled by mixing streams of dry and wet nitrogen, with a total flow rate of 200 mL/min. The relative humidity was measured by a calibrated Rotronic probe (dynamic range of 1.0-100% RH), located near the sample. The weight change, (mass relaxation) of the sample as a function of % RH was constantly monitored by a microbalance (accuracy±0.005 mg).
(§2) Typically, 5-30 mg of sample was placed in a tared mesh stainless steel basket under ambient conditions. The sample was loaded and unloaded at 40% RH and 25° C. (typical room conditions). A moisture sorption isotherm was performed as outlined below (2 scans per complete cycle). The standard isotherm was performed at 25° C. at 10% RH intervals over a 0-90% RH range. Typically, a double cycle (4 scans) was carried out. Data analysis was carried out within Microsoft Excel using the DVS Analysis Suite.
Sorption isotherms were obtained using a Hiden IGASorp moisture sorption analyser, controlled by Isochema HISorp software. The sample temperature was maintained at 25° C. by a Grant LT ecocool 150 re-circulating water bath. The humidity was controlled by mixing streams of dry and wet nitrogen, with a total flow rate of 250 ml·min-1. The relative humidity was measured by a calibrated Vaisala RH probe (dynamic range of 0-95% RH), located near the sample. The weight change, (mass relaxation) of the sample as a function of % RH was constantly monitored by the microbalance (accuracy±0.001 mg).
as §2, with “Typically, 20-30” for “Typically, 5-30”, “scans giving 1” for “scans per”, “within the Isochema HISorp 2019 software and exported into” for “within”, “Excel to present accordingly.” for “Excel using the DVS Analysis Suite.”

[6] = Thermodynamic solubility in simulated media and buffers; conditions: 25 °C, thermodynamic from solid
Experimental: The thermodynamic solubility for Pattern 11 was determined in 3 simulated media and two buffers. […]

[7] = Static storage at 40° C./75% RH, XRPD and HPLC post storage; conditions: for stability to storage at 40° C./75% RH (in words): 40° C./75% RH (elevated temperature and humidity); for HPLC purity post storage at 40° C./75% RH / XRPD post storage at 40° C./75% RH: 7 days
Experimental: Purity analysis was performed on an Agilent HP1100/Infinity II 1260 series system equipped with a diode array detector and using OpenLAB software. The full method details are provided below:
Poorly Crystalline Structure (I) (from Lot A, Free Form Pattern 1, 30 mg) was dissolved in 50 volumes of THF:Water 9:1 at 60° C. in 13 vials, stirring at 500 RPM (small amount of debris present). The solutions were then treated with 1.1 molar equivalents (90/180 μL) of selected counter-ions (Table 7). The resulting solutions were then cooled down to 5° C. at 0.1° C./min and were held at this temperature for 2 days. The suspensions were filtered and dried under suction for 20 min. The gummed sample was left with the cap off to promote crystallization. All solids obtained were initially analyzed by XRPD and stored in glass HPLC vials for subsequent analysis.
Any solids obtained were analyzed by XRPD, ^1H NMR, HPLC, TGA, DSC, XRPD post storage at 40° C./75% RH after 7 days & IC if necessary. Additional microscopy techniques (PLM & HSM) were used to complement the above analysis where appropriate.

[8] = Initial solubility testing in solvents; conditions: for solubility: organic solvent or mixture, thermodynamic from solid
Experimental: Structure (I) (20 mg) from Lot A (free form Pattern 1) was charged into HPLC vials, treated with solvent, 10 volumes at a time, until the material fully dissolved or a maximum of 50 volumes had been added. Once 50 volumes was reached without dissolution, the temperature was increased to 50° C. To each suspension, 1.1 molar equiv. (60 μL) of HCl (1M in THF) was added, stirred for 5 min, and slowly cooled to 5° C. at 0.1° C./min and held at that temperature overnight. All solids were then isolated by filtration through PTFE frits and dried under suction for 20 min. The samples were analyzed by XRPD.

[9] = Static storage at 25° C./97% RH, XRPD and HPLC post storage; conditions: 8 days, listed as Lot A
[10] = pKa measurements; conditions: listed as Lot A

- XRPD post storage at 40° C./75% RH ([1]; listed as 30-15): Pattern 3
SMILES: Cc1cc(Nc2cc(N)ncn2)c(=O)n2c1C(=O)NC21CCC2(CC2)CC1 [Pattern 8]
- XRPD (Dry) [2]: unstable to drying under ambient conditions

- solubility thermodynamic ([6]; simulated gastric fluid, SGF (pH 1.4), read-out: Thermodynamic solubility in simulated media, SGF): 130 µg/mL (≈ 0.355 mM)
- solubility thermodynamic ([6]; FaSSIF (pH 6.7), read-out: Thermodynamic solubility in simulated media, FaSSIF): 6 µg/mL (≈ 0.0164 mM)
- solubility thermodynamic ([6]; FeSSIF (pH 5.1), read-out: Thermodynamic solubility in simulated media, FeSSIF): 20 µg/mL (≈ 0.0546 mM)
- HPLC after storage at 40° C./75% RH (8 days) ([7]; 40° C./75% RH, 8 days): HPLC-98.2%
- solubility in solvents (in words) ([8]; up to 50 vol, up to 50° C.): insoluble in most solvents
- HPLC purity after storage at 25° C./97% RH (8 days) [9]: HPLC-97.5%
- acidic pKa (acidic center) [10]: Acidic: 11.49
- basic pKa [10]: Basic: 4.73
SMILES: Cc1cc(Nc2cc(N)ncn2)c(=O)n2c1C(=O)NC21CCC2(CC2)CC1 [Pattern 1]
- GVS mass change expressed as water ([5]; 0-90% RH): ~90% RH, exhibiting a slight hysteresis (ca. 6 mol eq water),
- Post GVS XRPD form ([5]; after double cycle GVS, listed as Lot A): unchanged; also recorded: showed that the solid form remained as poorly crystalline
- hygroscopicity (in words) ([5]; listed as Lot A): highly hygroscopic. XRPD of the sample after the analysis
- XRPD after storage at 40° C./75% RH (8 days) ([7]; 40° C./75% RH, 8 days, listed as Lot A): unchanged; also recorded: XRPD-poorly crystalline Pattern 1 (no change)
- XRPD after storage at 25° C./97% RH (8 days) [9]: XRPD-poorly crystalline Pattern 1 (no change)

- stability to storage at 40° C./75% RH (in words) [7]: stable to storage
- HPLC purity post storage at 40° C./75% RH ([7]; 40° C./75% RH, listed as 9-9): 98.1% purity. Tartrate
- XRPD post storage at 40° C./75% RH ([1]; listed as 9-9): pattern retained.
SMILES: Cc1cc(Nc2cc(N)ncn2)c(=O)n2c1C(=O)NC21CCC2(CC2)CC1 [Tartrate Pattern 1]

- XRPD post storage at 40° C./75% RH ([7]; 40° C./75% RH): converted to Pattern 3
- XRPD post storage at 40° C./75% RH ([1]; listed as 27-1): Change in form—Pattern 3
SMILES: Cc1cc(Nc2cc(N)ncn2)c(=O)n2c1C(=O)NC21CCC2(CC2)CC1 [Pattern 4]

- stability to storage at 40° C./75% RH (in words) [7]: remained stable by XRPD & HPLC
- stability to storage at 40° C./75% RH (in words) ([7]; listed as 9-8): data. Form looks stable
- XRPD post storage at 40° C./75% RH ([7]; 40° C./75% RH): consistent with PHO Pattern 1
- HPLC purity post storage at 40° C./75% RH ([7]; 40° C./75% RH, listed as 9-8): 98.5% purity. Phosphate
- HPLC purity post storage at 40° C./75% RH ([7]; 40° C./75% RH, listed as 22-2): 99.1%
- XRPD post storage at 40° C./75% RH ([1]; listed as 9-8): pattern retained,
- XRPD post storage at 40° C./75% RH ([1]; listed as 22-2): Unchanged
SMILES: Cc1cc(Nc2cc(N)ncn2)c(=O)n2c1C(=O)NC21CCC2(CC2)CC1 [Phosphate Pattern 1]

- change of chemical purity on storage at 40° C./75% RH (in words) ([7]; 40° C./75% RH): decrease in the observed chemical purity
- stability to storage at 40° C./75% RH (in words) [7]: stable to storage
- HPLC purity post storage at 40° C./75% RH ([7]; 40° C./75% RH, listed as 9-3): 95.6%
- change of chemical purity on storage at 40° C./75% RH (in words) ([7]; 40° C./75% RH, listed as 9-3): complex thermal data, loss of purity
- XRPD post storage at 40° C./75% RH ([1]; listed as 9-3): SUL Pattern 1
SMILES: Cc1cc(Nc2cc(N)ncn2)c(=O)n2c1C(=O)NC21CCC2(CC2)CC1 [SUL Pattern 1]

- form under ambient conditions (XRPD after ambient overnight) [2]: unstable at ambient conditions
SMILES: Cc1cc(Nc2cc(N)ncn2)c(=O)n2c1C(=O)NC21CCC2(CC2)CC1 [Pattern 9]
- XRPD (Dry) [2]: unstable to drying under ambient conditions

Second part, the compound before the results:

SMILES: Cc1cc(Nc2cc(N)ncn2)c(=O)n2c1C(=O)NC21CCC2(CC2)CC1 [Pattern 10]
- VT-XRPD form at 250° C. [3]: partially converted to Pattern 11
- XRPD after vacuum released [4]: converted back to Pattern 3
- form under ambient conditions (XRPD after ambient overnight) [2]: converted back to Pattern 3

SMILES: Cc1cc(Nc2cc(N)ncn2)c(=O)n2c1C(=O)NC21CCC2(CC2)CC1 [Pattern 8-2]
- solubility ([8]; 50 °C, 50 vol, 50° C., read-out: solubilization upon heating to 50° C.): < 20 mg/mL
- solubility ([8]; 20 mg in 10 vol of the sample's solvent, read-out: solubilization at 10 vol): < 100 mg/mL
- solubility ([8]; 20 vol of the sample's solvent, read-out: solubilization at 20 vol): < 50 mg/mL
- solubility ([8]; 30 vol of the sample's solvent, read-out: solubilization at 30 vol): < 33.3 mg/mL
- solubility ([8]; 40 vol of the sample's solvent, read-out: solubilization at 40 vol): < 25 mg/mL
- solubility ([8]; 50 vol of the sample's solvent, read-out: solubilization at 50 vol): < 20 mg/mL

SMILES: Cc1cc(Nc2cc(N)ncn2)c(=O)n2c1C(=O)NC21CCC2(CC2)CC1 [Pattern 7]
- stability to storage at 40° C./75% RH (in words) ([7]; listed as 30-6): not stable to static storage
- XRPD post storage at 40° C./75% RH ([1]; listed as 30-6): 7 days: Change in form-Pattern 3
- XRPD (Dry) ([2]; listed as 30-6): Pattern 7

SMILES: Cc1cc(Nc2cc(N)ncn2)c(=O)n2c1C(=O)NC21CCC2(CC2)CC1 [Fumarate Pattern 2]
- XRPD post storage at 40° C./75% RH ([7]; 40° C./75% RH): loss of the additional peaks
- HPLC purity post storage at 40° C./75% RH ([7]; 40° C./75% RH, listed as 22-4): 99.2%
- XRPD post storage at 40° C./75% RH ([1]; listed as 22-4): FUM P2 (additional peaks lost),

SMILES: Cc1cc(Nc2cc(N)ncn2)c(=O)n2c1C(=O)NC21CCC2(CC2)CC1 [HCl Pattern 1]
- stability to storage at 40° C./75% RH (in words) ([7]; listed as Chloride Pattern 1): remained stable by XRPD & HPLC
- HPLC purity post storage at 40° C./75% RH ([7]; 40° C./75% RH, listed as 22-1): 99.3%
- XRPD post storage at 40° C./75% RH ([1]; listed as 22-1): Unchanged

SMILES: Cc1cc(Nc2cc(N)ncn2)c(=O)n2c1C(=O)NC21CCC2(CC2)CC1 [Pattern 6]
- XRPD post storage at 40° C./75% RH ([1]; listed as 30-4): convert to Pattern 3; also recorded: form-Pattern 3
- XRPD (Dry) ([2]; listed as 30-4): maintained after mild drying; also recorded: Pattern 6

Reference: patent publication US20260217712A1, “SOLID STATE FORMS OF MNK INHIBITORS” (4E Therapeutics, Inc., priority 2023, published 2026)
